Columns and labels:
type I procollagen = test: Synthesis of procollagen 1 in reconstructed skin (indirect immunofluorescence); type: cell-based, human; settings: for procollagen 1 synthesis: reconstructed skin
Experimental: Conventional detection via indirect immunofluorescence of type I procollagen in the dermis of the reconstructed skin was also performed on other series of frozen sections (anti-procoll 1 antibody (MAB 1912 Millipore)+FTIC-coupled conjugate (112-095-068 Jackson Immunoresearch)). In order to obtain bearings within the cutaneous architecture during the microscopic examination of the sections, the cell nuclei of the keratinocytes and fibroblasts are localized by staining them with propidium iodide, as described above. Three frozen sections are prepared at random on each reconstructed skin and on each section, and two microscopic fields (25× objective lens) are analysed by fluorescence microscopy and photographed. The levels of fluorescence proportional to the amount of type I procollagen are compared between the control skin and the skin treated with rhamnose.

[1] = tested on: keratinocytes (HaCat line); test: Proliferation of keratinocytes (Cyquant, Nile red, XTT markers); type: cell-based
Experimental: The keratinocytes (HaCat line) are cultured under two conditions: whole defined culture medium (standard condition) and culture medium deficient in growth factors. This deficient medium gives rise to a controlled delay in cell proliferation. Under these conditions, it is then possible to measure the effects of compounds capable of compensating for the deficiency in growth factors of the culture medium and thus of relaunching the cell multiplication and/or of stimulating cell metabolism.
The keratinocyte proliferation is measured by means of three markers on the same cell population: the level of DNA, which is proportional to the number of cells (Cyquant probe), the level of constituent polar lipids of cell membranes (Nile red probe) and the mitochondrial respiration, which reflects the general cell metabolism (XTT probe).

[2] = tested on: dermal fibroblasts of the reconstructed skin; test: Proliferation of fibroblasts in whole reconstructed skin (propidium iodide nuclei count); type: cell-based, human; settings: 5 mM; within 48 hours of treatment
Source text: Rhamnose was studied on a model of whole reconstructed skin in order to measure its anti-ageing efficacy on the dermal compartment.
Briefly, the model of reconstructed skin used is that described by Bell et al. (Bell E. et al., The reconstitution of living skin, J. Invest. Dermatol., 1983, July; 81): it includes a dermal equivalent on which is reconstructed a multistratified epidermis; the dermal equivalent is manufactured from acid-soluble collagen, culture medium containing serum and normal adult human fibroblasts. After 5 days of shrinkage, this equivalent is inoculated with keratinocytes and then cultured for 6 days in immersion and for 7 days in emersion in order to obtain a multistratified and differentiated epidermis having a horny layer.
The reconstructed skin is treated with 5 mM rhamnose for 2 days and 5 days in the culture medium; after the treatment, the reconstructed skins are included in Tissue Tek in order to produce frozen sections 7 μm thick with a cryostat. […] Three frozen sections are prepared at random on each reconstructed skin; on each section, two microscopic fields (25× objective lens) are analysed by fluorescence microscopy and photographed. The dermal fibroblasts are thus counted for each reconstructed skin on six images in total representing the six microscopic fields considered. […]

Compound: C[C@H](O)[C@H](O)[C@@H](O)[C@@H](O)C=O [rhamnose, L-rhamnose]
- green fluorescence (proportional to the amount of type I procollagen) vs control skin (type I procollagen; 1 mM, 120 hours): marked increase
- synthesis of type I procollagen by the fibroblasts (type I procollagen; 1 mM, 120 hours): greatly stimulated
- procollagen 1 synthesis (type I procollagen; 1 mM): stimulation of procollagen 1 synthesis
- procollagen 1 synthesis (type I procollagen; 5 mM): stimulation of procollagen 1 synthesis
- keratinocyte proliferation ([1]; keratinocytes cultured in medium depleted in growth factors): activate keratinocyte proliferation
- number of cells compared with an untreated control ([1]; medium depleted in growth factor): higher number of cells
- growth of the dermal fibroblasts [2]: stimulation of growth
